Organism: Rattus norvegicus
Experiment: DrugMatrix - Regimen: Daily Repeat
Type: toxicity, organism-based, Sprague-Dawley
Parameters: regimen Daily Repeat, gender Male, age 6-8 weeks
Details: in vivo, po, route oral GAVAGE, vehicle .5 % CMC; for ABSOLUTE BASOPHIL / ABSOLUTE EOSINOPHIL / ABSOLUTE LYMPHOCYTE / ABSOLUTE MONOCYTE / ABSOLUTE SEGMENTED NEUTROPHIL / BASOPHIL / EOSINOPHIL / ERYTHROCYTE COUNT / HEMATOCRIT / HEMOGLOBIN / LEUKOCYTE COUNT / LYMPHOCYTE / MEAN CORPUSCULAR HEMOGLOBIN / MEAN CORPUSCULAR HEMOGLOBIN CONCENTRATION / MEAN CORPUSCULAR VOLUME / MONOCYTE / NEUTROPHIL / NUCLEATED RED BLOOD CELLS / PLATELET COUNT: tissue Blood; for ALANINE AMINOTRANSFERASE / ALBUMIN / ALKALINE PHOSPHATASE / ASPARTATE AMINOTRANSFERASE / BLOOD UREA NITROGEN / CARBON DIOXIDE / CHLORIDE / CHOLESTEROL / CREATINE PHOSPHOKINASE / CREATININE / GLUCOSE / LACTATE DEHYDROGENASE / LIPASE / PHOSPHORUS / POTASSIUM / SODIUM / TOTAL BILIRUBIN / TOTAL PROTEIN / URIC ACID: tissue Plasma
[1] = 0 mg/kg, 72 h, dose level Control, time 3 day
[2] = 0 mg/kg, 120 h, dose level Control, time 5 day
[3] = 44 mg/kg, 72 h, dose level Low, time 3 day

Brc1ccccc1 [BROMOBENZENE]
ABSOLUTE BASOPHIL [1]: 0 CELLS/uL | ABSOLUTE EOSINOPHIL [1]: 15.17 CELLS/uL | ABSOLUTE LYMPHOCYTE [1]: 10149.83 CELLS/uL | ABSOLUTE MONOCYTE [1]: 193.33 CELLS/uL | ABSOLUTE SEGMENTED NEUTROPHIL [1]: 1575 CELLS/uL | BASOPHIL [1]: 0% | EOSINOPHIL [1]: 0.17% | ERYTHROCYTE COUNT [1]: 5.53 x10E6/uL | HEMATOCRIT [1]: 34.7% | HEMOGLOBIN [1]: 12.78 G/DL | LEUKOCYTE COUNT [1]: 11.93 x10E3/uL | LYMPHOCYTE [1]: 85.5% | MEAN CORPUSCULAR HEMOGLOBIN [1]: 23.15 pg | MEAN CORPUSCULAR HEMOGLOBIN CONCENTRATION [1]: 36.9 G/DL | MEAN CORPUSCULAR VOLUME [1]: 62.82 fL | MONOCYTE [1]: 1.5% | NEUTROPHIL [1]: 12.83% | NUCLEATED RED BLOOD CELLS [1]: 0.5 /100WBC | PLATELET COUNT [1]: 994.17 x10E3/uL | ALANINE AMINOTRANSFERASE [1]: 48.17 u/L | ALBUMIN [1]: 4.37 G/DL | ALKALINE PHOSPHATASE [1]: 436.5 u/L | ASPARTATE AMINOTRANSFERASE [1]: 83.17 u/L | BLOOD UREA NITROGEN [1]: 14.67 mg/dL | CARBON DIOXIDE [1]: 30.83 mmol/L | CHLORIDE [1]: 99.17 MEQ/L | CHOLESTEROL [1]: 86.33 mg/dL | CREATINE PHOSPHOKINASE [1]: 243.33 u/L | CREATININE [1]: 0.25 mg/dL | GLUCOSE [1]: 158 mg/dL | LACTATE DEHYDROGENASE [1]: 262.33 u/L | LIPASE [1]: 11 u/L | PHOSPHORUS [1]: 12.07 mg/dL | POTASSIUM [1]: 6.52 MEQ/L | SODIUM [1]: 142.45 MEQ/L | TOTAL BILIRUBIN [1]: 0.17 mg/dL | TOTAL PROTEIN [1]: 6.25 G/DL | URIC ACID [1]: 1.42 mg/dL | ABSOLUTE BASOPHIL [2]: 0 CELLS/uL | ABSOLUTE EOSINOPHIL [2]: 0 CELLS/uL | ABSOLUTE LYMPHOCYTE [2]: 10076.67 CELLS/uL | ABSOLUTE MONOCYTE [2]: 124 CELLS/uL | ABSOLUTE SEGMENTED NEUTROPHIL [2]: 966 CELLS/uL | BASOPHIL [2]: 0% | EOSINOPHIL [2]: 0% | ERYTHROCYTE COUNT [2]: 5.57 x10E6/uL | HEMATOCRIT [2]: 33.37% | HEMOGLOBIN [2]: 12.73 G/DL | LEUKOCYTE COUNT [2]: 11.17 x10E3/uL | LYMPHOCYTE [2]: 90.33% | MEAN CORPUSCULAR HEMOGLOBIN [2]: 22.9 pg | MEAN CORPUSCULAR HEMOGLOBIN CONCENTRATION [2]: 38.18 G/DL | MEAN CORPUSCULAR VOLUME [2]: 59.97 fL | MONOCYTE [2]: 1% | NEUTROPHIL [2]: 8.67% | NUCLEATED RED BLOOD CELLS [2]: 0 /100WBC | PLATELET COUNT [2]: 1078 x10E3/uL | ALANINE AMINOTRANSFERASE [2]: 37.17 u/L | ALBUMIN [2]: 4.2 G/DL | ALKALINE PHOSPHATASE [2]: 322.17 u/L | ASPARTATE AMINOTRANSFERASE [2]: 67.67 u/L | BLOOD UREA NITROGEN [2]: 14 mg/dL | CARBON DIOXIDE [2]: 27.67 mmol/L | CHLORIDE [2]: 102.17 MEQ/L | CHOLESTEROL [2]: 67.67 mg/dL | CREATINE PHOSPHOKINASE [2]: 171.83 u/L | CREATININE [2]: 0.27 mg/dL | GLUCOSE [2]: 172 mg/dL | LACTATE DEHYDROGENASE [2]: 85.33 u/L | LIPASE [2]: 8.67 u/L | PHOSPHORUS [2]: 12 mg/dL | POTASSIUM [2]: 6.09 MEQ/L | SODIUM [2]: 144.82 MEQ/L | TOTAL BILIRUBIN [2]: 0.13 mg/dL | TOTAL PROTEIN [2]: 6.07 G/DL | URIC ACID [2]: 2.13 mg/dL | ABSOLUTE BASOPHIL [3]: 0 CELLS/uL | ABSOLUTE EOSINOPHIL [3]: 0 CELLS/uL | ABSOLUTE LYMPHOCYTE [3]: 8803 CELLS/uL | ABSOLUTE MONOCYTE [3]: 197 CELLS/uL | ABSOLUTE SEGMENTED NEUTROPHIL [3]: 1233.33 CELLS/uL | BASOPHIL [3]: 0% | EOSINOPHIL [3]: 0% | ERYTHROCYTE COUNT [3]: 5.29 x10E6/uL | HEMATOCRIT [3]: 32.6% | HEMOGLOBIN [3]: 12.17 G/DL | LEUKOCYTE COUNT [3]: 10.23 x10E3/uL | LYMPHOCYTE [3]: 86.33% | MEAN CORPUSCULAR HEMOGLOBIN [3]: 23 pg | MEAN CORPUSCULAR HEMOGLOBIN CONCENTRATION [3]: 37.3 G/DL | MEAN CORPUSCULAR VOLUME [3]: 61.67 fL | MONOCYTE [3]: 2% | NEUTROPHIL [3]: 11.67% | NUCLEATED RED BLOOD CELLS [3]: 0.33 /100WBC | PLATELET COUNT [3]: 1006 x10E3/uL | ALANINE AMINOTRANSFERASE [3]: 42.67 u/L | ALBUMIN [3]: 4.37 G/DL | ALKALINE PHOSPHATASE [3]: 351 u/L | ASPARTATE AMINOTRANSFERASE [3]: 74 u/L | BLOOD UREA NITROGEN [3]: 14 mg/dL | CARBON DIOXIDE [3]: 30 mmol/L | CHLORIDE [3]: 100.67 MEQ/L | CHOLESTEROL [3]: 85 mg/dL | CREATINE PHOSPHOKINASE [3]: 192.67 u/L | CREATININE [3]: 0.21 mg/dL | GLUCOSE [3]: 153.33 mg/dL | LACTATE DEHYDROGENASE [3]: 151.33 u/L | LIPASE [3]: 11.33 u/L | PHOSPHORUS [3]: 12.27 mg/dL | POTASSIUM [3]: 6.3 MEQ/L | SODIUM [3]: 144.5 MEQ/L | TOTAL BILIRUBIN [3]: 0.1 mg/dL | TOTAL PROTEIN [3]: 6.13 G/DL | URIC ACID [3]: 1.47 mg/dL

From ChEMBL document CHEMBL3885881, “DrugMatrix”
